According to patent US8987193B2, “Nisin derivatives and the use thereof” (University College Cork—National University of Ireland, Cork, priority 2008, dated 2015):
Entries after “also recorded” stand apart in the source; their conditions may differ. Ends that are not written are not given here.

System: indicator strains
Experiment: Deferred antagonism assays, various indicator strains (summary)
Type: cell-based
Conditions: for Target strain against which the hinge mutant was selected for enhanced bioactivity: XX and XXX banks, L. lactis HP*: enhanced or equal; for Target strain against which the hinge mutant was selected for enhanced bioactivity / Strain(s) against which the derivative (producing strain) displays enhanced bioactivity: relative to nisin A-producing control; for number of targets with enhanced activity: of the 8 additional targets tested; for Strain(s) against which the derivative (producing strain) displays enhanced bioactivity: value = strains listed
Experimental: Deferred antagonism assays were performed by replicating strains on GM17 or GM17 x-gal agar plates and allowing them to grow overnight before overlaying with either GM17/BHI/TS/MH agar (0.75% w/v agar) seeded with the appropriate indicator strain. Zone size was calculated as the diameter of the zone of clearing minus the diameter of bacterial growth (5 mm) For higher throughput screening of N20PXX, XM21VX, XXK22T and XXX banks deferred antagonism assays were performed by replicating strains using a 96 pin replicator (Boekel) or spotting 5 μl of a fresh overnight culture on GM17 agar plates and allowing them to grow overnight. […] Additional sets of indicators were employed to further assess/reassess the bioactivity of a number of strains. […] For well-diffusion assays molten agar was cooled to 48° C. and seeded with the appropriate indicator strain. The inoculated medium was rapidly transferred into sterile Petri plates in 50 ml volumes, allowed to solidify and dried. Wells (4.6 mm in diameter) were then made in the seeded plates. Purified nisin and mutant nisins were resuspended in 0.005% acetic acid, serially diluted, 50 μl volumes were dispensed into the aforementioned wells and the plates incubated at 37° C. overnight. Bioactivity was expressed as arbitrary units/ml (AU/ml) and calculated as the reciprocal of the highest dilution that gave a definite zone multiplied by the conversion factor (i.e. 20 when 50 μl was used) (Ryan et al., 1996).

| Substance | Target strain against which the hinge mutant was selected for enhanced bioactivity | number of targets with enhanced activity | Strain(s) against which the derivative (producing strain) displays enhanced bioactivity |
| --- | --- | --- | --- |
| NisinA PAQ (ITSISLCTPGCKTGALMGCPAQTATCHCSIHVSK; not fully specified (bridges); also: lantibiotic nisin-A: lanthionine rings and dehydrated residues, places not given here; UniProt P13068 24-57, looked up, variant N20P M21A K22Q) [nisin A hinge variant PAQ (i.e. N20P, M21A, K22Q)] | L. lactis HP* | 3 | S. agalactiae ATCC13813 and strain B and S. aureus NCDO1499 |
| NisinA PGA (ITSISLCTPGCKTGALMGCPGATATCHCSIHVSK; not fully specified (bridges); also: lantibiotic nisin-A: lanthionine rings and dehydrated residues, places not given here; UniProt P13068 24-57, looked up, variant N20P M21G K22A) [nisin A hinge variant PGA (i.e. N20P, M21G, K22A)] | L. lactis HP* | 3 | S. agalactiae ATCC13813 and strain B and S. aureus NCDO1499 |
| NisinA PHT (ITSISLCTPGCKTGALMGCPHTTATCHCSIHVSK; not fully specified (bridges); also: lantibiotic nisin-A: lanthionine rings and dehydrated residues, places not given here; UniProt P13068 24-57, looked up, variant N20P M21H K22T) [nisin A hinge variant PHT (i.e. N20P, M21H, K22T)] | Strep. agalactiae ATCC 13813 | 3 | Strep. agalactiae ATCC 13813 and Strain B, and L. lactis MG1363; also recorded: Strep. agalactiae ATCC 13813, L. lactis MG1363, S. agalactiae |
| NisinA PIH (ITSISLCTPGCKTGALMGCPIHTATCHCSIHVSK; not fully specified (bridges); also: lantibiotic nisin-A: lanthionine rings and dehydrated residues, places not given here; UniProt P13068 24-57, looked up, variant N20P M21I K22H) [nisin A hinge variant PIH (i.e. N20P, M21I, K22H)] | L. lactis HP* | 1 | S. agalactiae Strain B |
| NisinA PIT (ITSISLCTPGCKTGALMGCPITTATCHCSIHVSK; not fully specified (bridges); also: lantibiotic nisin-A: lanthionine rings and dehydrated residues, places not given here; UniProt P13068 24-57, looked up, variant N20P M21I K22T) [nisin A hinge variant PIT (i.e. N20P, M21I, K22T)] | L. lactis HP* | 3 | S. agalactiae ATCC13813 and strain B and S. aureus NCDO1499 |
| NisinA PIV (ITSISLCTPGCKTGALMGCPIVTATCHCSIHVSK; not fully specified (bridges); also: lantibiotic nisin-A: lanthionine rings and dehydrated residues, places not given here; UniProt P13068 24-57, looked up, variant N20P M21I K22V) [nisin A hinge variant PIV (i.e. N20P, M21I, K22V)] | L. lactis HP* | 3 | S. agalactiae ATCC13813 and strain B and S. aureus NCDO1499 |
| NisinA PMA | Strep. agalactiae ATCC 13813 | 1 | Strep. agalactiae ATCC 13813 and S. aureus DPC5246 |
